Experimental data reported in US10004761B2, “Malodor neutralizing composition” (priority 2016, dated 2018).

Columns and labels:
chondroitinase ABC = assay: HA gelation consistency (Method III) in the presence of Chondroitinase ABC; type: biochemical, Proteus vulgaris; details: Table 4: NAC 400 mg dry powder (20% final), HA 2 cc of 1%, Chondroitinase ABC 50 μL, 37° C.; cell wraps: Viscous liquid
Description: (§1) Method III (Viscosity of HA): HA at low concentrations (e.g., 1%) in aqueous solution forms a viscous colloidal hydrogel solution, which yields semi-solid gel particles at room temperature and a solid gel at 4° C.
(§2) HA degradation was evaluated using Method III, as described hereinabove.
(§3) HA state of gelation was studied in the presence of NAC and various HA-degrading enzymes, using the following Stock solutions:
(§4) The tested enzyme (50 μL) was placed in a tube, NAC (50 μL of the Stock solution, final concentration of about 3.3%) was added and the mixture was incubated for 2 hours at room temperature (23° C.). Then, 2 ml of HA 1% were added to each tube and tubes were further incubated at room temperature for additional 24 hours.
(§5) In a second set of experiments, NAC (50 μL of the Stock solution) was added to a tube containing 2 ml of HA 1%; and the tubes were incubated for 2 hours at room temperature. Then, the HA-degrading enzyme was added and tubes were incubated at room temperature for additional 24 hours. In control tubes 9 and 10 (containing only HA), 50 μL of water were added to achieve the same volume as the other tested tubes.
In another set of experiments, the effect of NAC powder, (at a final concentration of 20%), on HA gelation in the presence of Hyase or Chondroitinase ABC was tested. […]

[1] = tested on: hyaluronidase Type IV-S, from bovine testes (Hyase); assay: Dische's assay (Method II) of HA degradation by Hyase with inhibitors; type: biochemical
Description: Method II (Dische's assay; detection of uronic acid residues): Assays were performed by following the procedures described in Dische Z. [J. Biol. Chem., 1947, 167, p. 189-198] and Dische and Rothschild [Anal Biochem., 1967, 21(1), p. 125-30]. In these assays, molecules containing the uronic acid residues found in the precipitate formed upon CPC additions, are re-solubilized and products formed by -sulfuric acid hydrolysis of these fragments are detected by a spectrophotometric assay employing carbazole chromagen reagent. In addition, small residues degraded off the HA chains that have not precipitated with the addition of CPC, can be detected by the carbazole assay performed on the solution, so as to detect all of the uronic acid content.
Evaluation of HA degradation by this method was generally performed as follows:
20 μL of a NAC stock solution, and 20 μL of the stock solutions of the other inhibitors were used in the assay.
200 μL of the HA stock solution were placed in each tube, for achieving a 1 mg HA per tube.
Twenty (20) μL of hyase and 20 μL of NAC were combined and incubated for 2 hours. Then 200 μL of HA (1 mg) were added to each tube and the mixture was incubated at room temperature for 24 hours. Thereafter, the tubes were heated for 2 minutes in boiling water bath and 8 mL of doubled distilled water were added to the tubes as preparation for the Dische's assay.
As per Dische's Assay, 100 μL of 3N NaCl and 0.5 mL of 10% CPC (cetylpyridinium chloride) were thereafter added to each tube and the mixture was incubated at 37° C. until flocculation-turbidity (resulting from precipitation of HA+CPC) could be observed. The mixture was centrifuged for 10 minutes at 10,000 g at room temperature, and the supernatant was thereafter separated from the obtained pellet.
The pellet was dissolved in 1 ml of CaCl2, and the obtained solution was incubated at 37° C. until complete dissolution of the pellet is obtained. A 2:1 v/v ethanol/ether mixture (8 ml) was thereafter added, and the mixture was intensively stirred (by vortex) and kept at −20° C. overnight. The obtained pellet was collected following a centrifugation for 10 minutes at 10,000 g. Then, distilled water (1 mL) was added to solubilize the pellet, followed by addition of 0.2 ml Carbazole 1%. The mixture was stirred thoroughly, and concentrated sulfuric acid (6 mL) was thereafter added.
The samples were transferred into tight closed tubes, placed for 10 minutes in a boiling water bath, and was thereafter cooled in ice until it reached room temperature.
The pink-violet color developed by the chromogen was measured using a spectrophotometer at 527 nm.
Ditch assay, as described hereinabove (Method II) was performed while using the following Hyase inhibitors:
The experiment was run at room temperature (23° C.). Hyase and Inhibitors were incubated first for 2 hours prior to the addition of HA. Blank tubes included no substrate (HA) and Control tubes included no enzyme, no inhibitor and HA (200 μL). Tubes 5 and 6 contained HA and Hyase with no inhibitor. Standard Solutions with no enzyme and no inhibitor and HA 50 μL and 10 μL were also tested, for calibration. % HA cleaved denotes the weight percent of HA that was degraded. % HA residue denotes the weight percent of non-degraded HA, and represents the % of Hyase inhibition.

[2] = tested on: hyaluronidase Type IV-S, from bovine testes (Hyase); assay: HA gelation consistency (Method III) in the presence of Hyase; type: biochemical; details: for Consistency after 24 h incubation at 37° C.: HA 1% 2 mL
Description: as §1, §2, §3, §4, §5
In another set of experiments, the effect of NAC powder, (at a final concentration of 20%), on HA gelation in the presence of Hyase or Chondroitinase ABC was tested. HA (2 ml of 1%), and the tested enzyme were incubated with and without 400 mg of NAC powder, at 4° C. and at 37° C.
HA gelation in the presence of various concentrations of NAC and/or various concentrations of Hyase was further studies. […] The solutions were maintained for 24 hours at room temperature, and thereafter Hyase, at various concentrations, was added. Then the mixtures were incubated at room temperature. The enzyme was absent in the control tubes.
In another set of experiments, the effect of various NAC concentrations on gelation of HA 1% (2 mL in each tube) in the presence of Hyase (50 μL of Stock solution) following incubation at 37° C., was tested, using the same procedure as described hereinabove.

SMILES: CC(=O)N[C@@H](CS)C(=O)O [NAC, N-acetyl L-cysteine]
- Consistency (chondroitinase ABC): Viscous
- % HA degraded ([1]; 20 μL inhibitor stock incubated 2 h with 20 μL Hyase, then HA 200 μL, room temperature 24 h): 0%
- inhibition of HA degradation ([1]; NAC final concentration of the incubate 2%, Tubes 11-12): completely inhibited HA degradation
- % of inhibition of HA degradation ([1]; derived from Table 1): 100%
- % HA intact (precipitated) ([1]; represents % of Hyase inhibition, 20 μL inhibitor, 20 μL Hyase, HA 200 μL, room temperature 24 h): 100%
- NAC concentration that fails to inhibit HA degradation ([2]; HA 1%, Hyase 50 μL, 37° C. 24 h): lower than 1%
- NAC concentration range with the best effect ([2]; HA 1%, Hyase 50 μL, at 37° C.): 4-16%
- Consistency after 24 h incubation at 37° C. ([2]; NAC 0.25% (5 mg), Hyase 50 μL): Fluid liquid (for a fluid liquid were in the range of 1-500 mPa S)
- Consistency after 24 h incubation at 37° C. ([2]; NAC 0.5% (10 mg), Hyase 50 μL): Fluid liquid (for a fluid liquid were in the range of 1-500 mPa S)
- Consistency after 24 h incubation at 37° C. ([2]; NAC 1.0% (20 mg), Hyase 50 μL): Viscous liquid (for a viscous liquid in the range of 1-10 Pa S)
- Consistency after 24 h incubation at 37° C. ([2]; NAC 2.0% (40 mg), Hyase 50 μL): Viscous liquid (for a viscous liquid in the range of 1-10 Pa S)
- Consistency after 24 h incubation at 37° C. ([2]; NAC 4.0% (80 mg), Hyase 50 μL): Semisolid (for a semi-solid in the range of 50-70 Pa S)
- Consistency after 24 h incubation at 37° C. ([2]; NAC 8% (160 mg), Hyase 50 μL): Semisolid (for a semi-solid in the range of 50-70 Pa S)
- Consistency after 24 h incubation at 37° C. ([2]; NAC 10% (200 mg), Hyase 50 μL): Semisolid (for a semi-solid in the range of 50-70 Pa S)
- Consistency after 24 h incubation at 37° C. ([2]; NAC 20% (400 mg), Hyase 50 μL): Fluid liquid (for a fluid liquid were in the range of 1-500 mPa S)
- Consistency ([2]; Table 2: Hyase 50 μL + NAC 50 μL (400 mM stock, about 3.3%) 2 h at 23° C., then HA 1% 2 mL, 24 h room temperature): Solid (for a solid the results were in the range of 80-100 Pa S and higher)
- Consistency ([2]; Table 3: NAC 50 μL added to HA 1% 2 mL first (0.5% NAC final), 2 h, then Hyase 50 μL, 24 h room temperature): Fluid Liquid
- Consistency ([2]; Table 4: NAC 400 mg dry powder (20% final), HA 2 cc of 1%, Hyase 50 μL, 4° C.): Semisolid (for a semi-solid in the range of 50-70 Pa S)
- Consistency ([2]; Table 4: NAC 400 mg dry powder (20% final), HA 2 cc of 1%, Hyase 50 μL, 37° C., cell wraps: Viscous liquid): Viscous
- Consistency ([2]; Table 5: NAC 5% (2 mL), HA 40 mg dry powder, Hyase 50 μL, room temperature, cell wraps: Solid, no crystals): Solid, no
- Consistency ([2]; Table 5: NAC 10% (2 mL), HA 40 mg dry powder, Hyase 50 μL, room temperature, cell wraps: Solid, no crystals): Solid, no
